Laboratory results as given in patent US20090023666A1, “Modulators of Hypoxia Inducible Factor-1 and Related Uses” (priority 2006, published 2009).
“Also recorded” adds a separate entry of the source. Like-named read-outs stand apart in the source and are kept apart here.

Legend:
[1] = tested on: HT29; assay: Anti-proliferative activity, HT29; format: cell-based; conditions: Homo sapiens
Procedure: (§1) FIG. 8 is a graph depicting the mRNA levels of α-1 and α-3 isoforms quantitated by real time RT-PCR (TaqMan) using fluorescent labeled TaqMan probes. Anti-proliferation (IC50 values) activity of BNC4 on indicated cell lines was determined by MTS assay. Total alpha levels (al+a3) were plotted against (1/IC50) X100 values.

[2] = tested on: Panc-1 (PANC); assay: Anti-proliferative activity (APA), Panc-1; format: cell-based; conditions: Homo sapiens
Procedure: as §1

[3] = tested on: P388; assay: Anti-proliferative activity, P388; format: cell-based; conditions: Mus musculus
Procedure: as §1

[4] = tested on: PC3; assay: Anti-proliferative activity, PC3; format: cell-based; conditions: Homo sapiens
Procedure: as §1

[5] = tested on: IGR-OV1; assay: Anti-proliferative activity, IGR-OV1; format: cell-based; conditions: Homo sapiens
Procedure: as §1

[6] = tested on: Caki-1 (CAKI); assay: cells; format: cell-based; conditions: Homo sapiens
Procedure: as §1

[7] = tested on: A549; assay: cells; format: cell-based; conditions: Homo sapiens
Procedure: as §1

[8] = tested on: HIF-1α; assay: Inhibition of hypoxia-mediated HIF-1α induction (immunoblotting); format: cell-based, human; conditions: Caki-1 or Panc-1 cells under hypoxia
[9] = tested on: C33A; assay: Anti-proliferative activity, C33A; format: cell-based; conditions: Homo sapiens, C-33-A, read-out: Anti-Proliferative activity IC50
Procedure: as §1

[10] = tested on: HIF-1α and HIF-2α; assay: Induction of HIF-1α and HIF-2α during hypoxia (Western blotting); format: cell-based; conditions: for HIF-1α and HIF-2α protein expression: Caki-1, A549, Panc-1, Hep3B cells, hypoxia (1% O2) 4 hours, BNC4 0.1 μM, BP228 and BP244 0.1 and 1.0 μM; for protein expression of HIF-1β, NIK, Hsp90, DR4, Bcl-2 and β-actin: same cells and treatment, specificity
Procedure: Caki-1 (renal cancer), A549 (lung cancer), Panc-1 (pancreatic cancer) and Hep3B (liver cancer) cells were treated with BNC4, BP228 and BP244 under hypoxic conditions. The cells were treated with indicated each compound for 4 hours under normoxic (N, 20% O2) or hypoxic (H, 1% O2) conditions. Expression of HIF-1α, HIF-1β and β-actin and other proteins was analyzed by Western blotting. The HIF-1α and HIF-2α protein levels increased in cells cultured under these conditions for 4 hours without any treatment. […] The inhibition was specific as levels of constitutively expressed HIF-1β were not affected by any of the drugs.

[11] = cited from earlier work
[12] = tested on: RPMI-8226; assay: Anti-proliferative activity, RPMI-8226; format: cell-based; conditions: Homo sapiens
Procedure: as §1

[13] = tested on: HIF-1α; assay: Inhibition of HIF-1α induced under normoxia by PHD inhibitor L-mimosone (Western blotting); format: cell-based; conditions: Hep3B cells, 200 μM L-mimosone 18 hours
Procedure: Abundance of HIF1α and β-actin was determined by Western blotting.

[14] = tested on: MES-SA-DX5; assay: Anti-proliferative activity, MES-SA-DX5; format: cell-based; conditions: Homo sapiens
Procedure: as §1

[15] = tested on: Na-K-ATPase; assay: Na-K-ATPase enzyme assay (inorganic phosphate liberated from ATP), pig brain; format: biochemical; conditions: pig brain
Procedure: Compounds were tested for their activity on Na-K-ATPase enzyme in an in vitro enzyme assay. The ATPase activity was assayed as the amount of inorganic phosphate liberated from ATP by Dog Kidney or Porcine cerebral cortex Na-K-ATPase.

[16] = tested on: Caki-1 tumors; assay: In vivo activity against renal cancer cell line Caki-1 xenograft; conditions: Caki-1 bearing nude mice
Procedure: Female nude mice (nu/nu) between 5 and 6 weeks of age weighing approximately 20 g were implanted subcutaneously (s.c.) by trocar with fragments of human tumors harvested from s.c. grown tumors in nude mice hosts. When the tumors were approximately 60-75 mg in size (about 10-15 days following inoculation), the animals were pair-matched into treatment and control groups. Each group contained 8-10 mice. The administration of drugs or controls began on the day the animals were pair-matched (Day 1). Pumps (Alzet® Model 2002) with a flow rate of 0.5 μl/hr were implanted s.c. between the shoulder blades of each mice. Mice were weighed and tumor measurements were obtained using calipers twice weekly, starting Day 1. These tumor measurements were converted to mg tumor weight by standard formula, (W^2XL)/2. The experiment was terminated when the control group tumor size reached an average of about 1 gram. Upon termination, the mice were weighed, sacrificed and their tumors excised. The tumors were weighed and the mean tumor weight per group was calculated.

[17] = HT-29, read-out: Anti-Proliferative activity IC50
[18] = PANC-1, read-out: Anti-Proliferative activity IC50
[19] = P388, read-out: Anti-Proliferative activity IC50
[20] = PC-3, read-out: Anti-Proliferative activity IC50
[21] = IGROV-1, read-out: Anti-Proliferative activity IC50
[22] = CAKI-1, read-out: Anti-Proliferative activity IC50
[23] = A549, read-out: Anti-Proliferative activity IC50
[24] = RPMI-8226, read-out: Anti-Proliferative activity IC50
[25] = MES-SA/Dx5, read-out: Anti-Proliferative activity IC50

| Structure (SMILES) | HIF-1α and HIF-2α protein expression [10] | protein expression of HIF-1β, NIK, Hsp90, DR4, Bcl-2 and β-actin [10] | IC50 [1, 17] | IC50 [2, 18] | IC50 [3, 19] | IC50 [4, 20] | IC50 [5, 21] | IC50 [6, 22] | IC50 [7, 23] | IC50 [9] | IC50 [12, 24] | IC50 [14, 25] | other results |
| --- | --- | --- | --- | --- | --- | --- | --- | --- | --- | --- | --- | --- | --- |
| C[C@@H]1O[C@@H](O[C@@H]2C=C3CC[C@@H]4[C@H](CC[C@]5(C)[C@@H](c6ccc(=O)oc6)CC[C@]45O)[C@@]3(C)CC2)[C@H](O)[C@H](O)[C@H]1O [BNC4, proscillaridin, reference compound] | inhibition of hypoxia-mediated HIF-1α induction; also recorded: almost complete inhibition | no effect |  |  |  |  |  |  |  |  |  |  | IC50 ([1]; HT-29, HT29, Colon, read-out: Anti-Proliferative activity IC50): 8.9 nM; IC50 ([2]; PANC-1, PANC, Pancreatic, read-out: Anti-Proliferative activity IC50): 3.8 nM; IC50 ([3]; P388, Leukemia, read-out: Anti-Proliferative activity IC50): > 1000 nM; IC50 ([4]; PC-3, PC3, Prostate, read-out: Anti-Proliferative activity IC50): 4.1 nM; IC50 ([5]; IGROV-1, IGR-OV1, Ovarian, read-out: Anti-Proliferative activity IC50): 12.3 nM; IC50 ([6]; CAKI-1, CAKI, Renal, read-out: Anti-Proliferative activity IC50): 7.5 nM; IC50 ([7]; A549, NSCL, read-out: Anti-Proliferative activity IC50): 3.5 nM; potency in inhibiting HIF-1α expression relative to BNC1 [8]: about 10 times; IC50 ([9]; C33A, Cervical): 13.6 nM; plasma half-life in human ([11]; human, according to the literature): about 40 hours; max. plasma concentration ([11]; in vivo): about 0.1 μg/mL; IC50 ([12]; RPMI-8226, Myeloma, read-out: Anti-Proliferative activity IC50): 18.2 nM; HIF-1α accumulation by L-mimosone [13]: blocks HIF-1α induction; also recorded: eliminated HIF-1α accumulation by L-mimosone; IC50 ([14]; MES-SA-DX5, Uterine, read-out: Anti-Proliferative activity IC50): 11.6 nM |
| C[C@]12CC/C(=N\OCCN3CCCCC3)C=C1CC[C@@H]1[C@@H]2CC[C@]2(C)[C@@H](c3ccc(=O)oc3)CC[C@]12O [BP228] | inhibition of hypoxia-mediated HIF-1α induction; also recorded: almost complete inhibition | no effect | 18.9 nM | 8.1 nM | > 1000 nM | 6.2 nM | 31.9 nM | 13 nM | 7.3 nM | 7.2 nM | 25.5 nM | 15.8 nM |  |
| C[C@@H]1O[C@@H](O[C@@H]2C=C3CC[C@@H]4[C@H](CC[C@]5(C)[C@@H](c6ccc(=O)oc6)CC[C@]45O)[C@@]3(C)CC2)[C@H](O)[C@H](O)[C@H]1N [BP244] | inhibition of hypoxia-mediated HIF-1α induction; also recorded: almost complete inhibition | no effect | 8.2 nM | 6.6 nM | > 1000 nM | 5.7 nM | 12.1 nM | 8 nM | 4.8 nM | 5.1 nM | 10.7 nM | 13.5 nM | activity on Na-K-ATPase relative to BP228 [15]: twice as active as BP228; IC50 ([15]; FIG. 9, read-out: IC50, Na-K-ATPase): 98000 nM; adverse effects ([16]; 15 mg/ml pump): without any adverse effects; tumor growth inhibition (TGI) ([16]; 15 mg/ml, s.c. Alzet pump 0.5 μl/hr): 83% |
